# Several values for one entry are separate records, joined by “and”; a condition that tells them apart may be missing. Equal entries are not always repeated. Entries after “also recorded” stand apart in the source; their conditions may differ. Where two headings read alike, the source gives them in different places.
# Key:
# [1] = system: AR-V7 prostate cancer models; parameters: method as in ref 28,29 (S1 Protocol); details: combined with enzalutamide or abiraterone; ref 28,29 (S1 Protocol); cited from earlier work
# metastatic CRPC (PSA) = assay: On-study PSA changes; assay type: in vivo, human
# Description: The primary objective was to assess safety.
# [2] = system: enzalutamide-resistant LNCaP cells engineered to maintain Stat3 activation; details: cited from earlier work
# [3] = Plasma niclosamide pharmacokinetics (LCMS, non-compartmental analysis); assay type: in vivo, human
# Description: Blood for pharmacokinetic analyses were drawn at the following time points after the first dose: 0.5 hr, 1 hr, 1.5 hr, 2 hr, 3 hr, 4 hr, 6 hr, 8 hr and on Day 15. […] After vortexing, the samples were centrifuged at 20000 x G for 10 minutes at 4°C. The supernatant was transferred to a 96-well plate and 2 μL were injected on the liquid chromatography mass spectrometry (LCMS) system. The LCMS system was an ultrapressure liquid chromatography (Agilent (Santa Clara, CA) 1290 series) coupled to an Agilent G6410B triple-quadrupole mass spectrometer. The column was an Agilent Zorbax SB-C18 2.1 mm x 150 mm x 5μ maintained at 45°C. Mobile phase A was 10 mM ammonium formate (pH = 3) and mobile phase B was acetonitrile in the ratio of 35% A: 65% B at 0.4 mL/min.
# [4] = prior experience; ref 27,60 (S1 Protocol); cited from earlier work
# [5] = system: enzalutamide-resistant, AR-V7+ C4-2B cells; details: co-cultured with 81.8 ng/mL; cited from earlier work
# [6] = ref 27,71 (S1 Protocol); cited from earlier work
# [7] = rats; ref 62 (S1 Protocol, WHO/VBC/DS/88.63); cited from earlier work
# [8] = system: abiraterone and/or enzalutamide-resistant models, including AR-V7+ cell lines; details: cited from earlier work
# AR-V7+ CWR22Rv1 cells = details: 81.8 ng/mL; cited from earlier work
# [9] = published pharmacokinetics data; cited from earlier work
# [10] = system: AR-V7 prostate cancer models; parameters: method as in ref 28 (S1 Protocol, Liu et al, 2014); details: in vitro, 48 hours exposure; ref 28 (S1 Protocol, Liu et al, 2014); cited from earlier work
# DU145 = details: cited from earlier work
# [11] = Phase I dose-escalation: adverse events and dose-limiting toxicities (CTCAE v4.0)
# Description: All patients were required to have mCRPC (i.e., disease progression in spite of serum testosterone ≤50 ng/dL) and had received prior abiraterone. Patients were originally required to have detectable AR-V transcripts in circulating tumor cells (CTC) as determined using the AdnaTest assay[9]. […] The primary objective was to assess safety.
# We utilized the continual reassessment method (CRM) to evaluate dose-related toxicities and to determine the recommended Phase II dose[37]. We targeted a maximum of 30% of patients incurring dose-limiting toxicities (DLT) up to 30 days after the final (day-28) dose. […] Adverse events (AEs) were documented by incidence and their severity was graded according to the National Cancer Institute–Common Terminology Criteria for Adverse Events (CTCAE) version 4.0. The pharmacokinetic data underwent non-compartmental analysis using Phoenix WinNonlin version 8.0 (Certara USA, Inc; Princeton, NJ), and key pharmacokinetic parameters (e.g., Cmax, Cmin, Css and t1/2) were extracted.
# [12] = first dose 500 mg PO, plasma, individual patients Pt# 1, 17, 18
# [13] = first dose 500 mg PO, Pt# 1, 17, 18
# [14] = first dose 1000 mg PO, plasma, individual patients Pt# 19, 20
# [15] = first dose 1000 mg PO, Pt# 19, 20
# [16] = AE possibly/probably related, 500 mg PO TID + enzalutamide, Pt# 1, 17, 18
# [17] = AE possibly/probably related, 1000 mg PO TID + enzalutamide, Pt# 19, 20
structure (smiles),measurement,setting,value
"O=C(Nc1ccc([N+](=O)[O-])cc1Cl)c1cc(Cl)ccc1O [niclosamide, 2',5-dichloro-4'-nitrosalicylanilide]",anti-tumor effect of combination,[1],synergistic
same,PSA Day 29,"metastatic CRPC (PSA); 1000 mg PO TID + enzalutamide, Pt# 19",3009.49 ng/mL
same,PSA Change (%),"metastatic CRPC (PSA); Day 1 to Day 29, 1000 mg PO TID + enzalutamide, Pt# 19",101.7%
same,PSA declines,"metastatic CRPC (PSA); all dose cohorts, niclosamide + enzalutamide",no PSA declines; also recorded: no evidence for declining PSA
same,clinical activity,"metastatic CRPC (PSA); any patient enrolled, niclosamide + enzalutamide",no evidence of clinical activity
same,concentrations at which cells were growth inhibited,[2],≥ 163.5 ng/mL
same,patients achieving a Cmax ≥163.5 ng/mL,[3]; 500 mg PO TID cohort,one of three
same,patients achieving a Cmax ≥163.5 ng/mL,[3]; 1000 mg PO TID cohort,one of two
same,Cmax,[3]; [12],35.7 ng/mL and 88.3 ng/mL
same,Tmax,[3]; [12],6 h and 2 h and 1 h
same,% of AUC0-∞ extrapolated,[3]; [13],26.6% and 13.7% and 17.2%
same,Cmin,[3]; [13],13.3 ng/mL and 6.92 ng/mL and 7.42 ng/mL
same,Tmin,[3]; [13],4 h and 8 h
same,Cmax,[3]; [14],149 ng/mL
same,Tmax,[3]; [14],1 h and 6 h
same,First dose AUC0-∞,"[3]; first dose 1000 mg PO, Clast/elimination rate constant used for extrapolation, Pt# 19, 20",986 ng·h/mL
same,% of AUC0-∞ extrapolated,[3]; [15],36.0% and 36.2%
same,Apparent oral clearance (clearance divided by fraction absorbed),[3]; [15],14.9 L/hr per kg of IBW
same,Cmin,[3]; [15],45.5 ng/mL and 90.0 ng/mL
same,First dose AUC0-τ,[3]; [15],629 ng·h/mL
same,Tmin,[3]; [15],8 h
same,Cmax,"[3]; human, plasma, po, 1000 mg, first dose 1000 mg PO, plasma, individual patients Pt# 19, 20, read-out: Cmax",182 ng/mL
same,AUC(0-inf),"[3]; human, plasma, po, 1000 mg, first dose 1000 mg PO, Clast/elimination rate constant used for extrapolation, Pt# 19, 20, read-out: First dose AUC0-∞",1060 ng·h/mL
same,CL/F,"[3]; human, plasma, po, 1000 mg, first dose 1000 mg PO, Pt# 19, 20, read-out: Apparent oral clearance (clearance divided by fraction absorbed) (converted)",203 mL/min/kg
same,AUC,"[3]; human, plasma, po, 1000 mg, first dose 1000 mg PO, Pt# 19, 20, read-out: First dose AUC0-τ",676 ng·h/mL
same,CL/F,"[3]; male, human, plasma, po, 1000 mg, all 5 patients, 500 and 1000 mg cohorts, read-out: apparent oral clearance (CL/F), range over patients",152 to 630 mL/min/kg
same,"patients with gastrointestinal side effects (nausea, vomiting and stomach pain)",[4],~ 10%
same,growth inhibition,[5],growth inhibited
same,solubility in acetone,[6],soluble
same,"solubility in ethanol, chloroform, or ether",[6],sparingly soluble
same,solubility in water,[6],almost insoluble
same,oral LD50,[7],"> 5,000 mg/kg body weight"
same,concentrations that consistently inhibited cell growth,[8],≥ 163.5 ng/mL
same,lowest concentration inhibiting some AR-V7+ cell lines,[8],≥ 81.8 ng/mL
same,growth inhibition,AR-V7+ CWR22Rv1 cells,did not demonstrate significant growth inhibition
same,oral bioavailability,[9],poor oral bioavailability
same,lowest concentration inducing apoptosis / inhibiting cell line growth,[10],≥ 0.25 µg/mL
same,"IC50, decreased cell proliferation",DU145,0.33 µg/mL
same,patients with any toxicities deemed at least possibly related to niclosamide,[11]; 500 mg PO TID cohort,one out of three
same,dose-limiting toxicities (DLTs),"[11]; 500 mg PO TID cohort, 3 patients, + enzalutamide",no dose-limiting toxicities; also recorded: No DLTs observed
same,tolerability,[11]; 500 mg PO TID in combination with enzalutamide,well tolerated
same,Nausea (Grade),"[11]; AE possibly/probably related, 500 mg PO TID + enzalutamide 160 mg daily, Pt# 1, 17, 18",1 Grade
same,Anorexia (Grade),[11]; [16],1 Grade
same,Weight loss (Grade),[11]; [16],1 Grade
same,Nausea (Grade),"[11]; AE possibly/probably related, 1000 mg PO TID + enzalutamide 160 mg daily, Pt# 19, 20",3 Grade and 3 ^* Grade and 2 Grade
same,Abdominal pain (Grade),[11]; [17],3 Grade
same,Anorexia (Grade),[11]; [17],1 Grade
same,Colitis (Grade),[11]; [17],3 Grade and 3 ^** Grade
same,Diarrhea (Grade),[11]; [17],3 Grade
same,Lipase elevation (Grade),[11]; [17],2 Grade
same,Vomiting (Grade),[11]; [17],3 Grade
same,maximum tolerated dose,"[11]; PO TID, in combination with enzalutamide 160 mg daily",500 mg

# From PMC5983471 (PLoS ONE, 2018)
